According to US9901577B2, “Oxoquinazolinyl-butanamide derivatives” (MERCK PATENT GMBH, priority 2013, dated 2018):
Read-outs that look alike come from different tables or passages of the source.

Assays:
Tankyrase [1] = assay: Measurement of cellular inhibition of Tankyrase (Axin2 level in DLD1 cells, Luminex based assay); type: cell-based; conditions: for EC50: prior art compounds
Description: (§1) Measurement of Cellular Inhibition of Tankyrase
(§2) Cells of the colon carcinoma cell line DLD1 are plated in 96 well plates with 1.5×10^4 cells per well. Next day, cells are treated with a serial dilution of test compound in seven steps as triplicates with a final DMSO concentration of 0.3%. […] The amount of isolated Axin2 protein is determined in a Luminex^200 machine (Luminex Corporation) according to the manufacturer's instruction by counting 100 events per well. […] As controls cells are treated with solvent alone (neutral control) and with a Tankyrase reference inhibitor IWR-2 (3E-06 M) which refers as control for maximum increase of Axin2. For analysis, the obtained data are normalized against the untreated solvent control and fitted for determination of the EC50 values using the Assay Explorer software (Accelrys).

TNKS1 = target: T1, TNKS1 (Homo sapiens, UniProt O95271); assay: TNKS1 activity ELISA (autoparsylation assay); type: biochemical
T1 construct: GST-tagged Tnks-1 (1023-1327 aa, prepared in-house); made in house
T1 sequence (O95271 1023-1327): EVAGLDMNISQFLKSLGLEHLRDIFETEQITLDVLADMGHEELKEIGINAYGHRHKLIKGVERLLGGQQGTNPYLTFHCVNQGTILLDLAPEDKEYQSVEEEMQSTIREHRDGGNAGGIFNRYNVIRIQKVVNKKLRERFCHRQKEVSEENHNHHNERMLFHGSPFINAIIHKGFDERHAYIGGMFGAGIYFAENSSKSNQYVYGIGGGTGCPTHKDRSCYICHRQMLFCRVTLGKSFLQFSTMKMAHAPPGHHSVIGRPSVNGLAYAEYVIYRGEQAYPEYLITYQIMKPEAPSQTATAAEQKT
Description: (§3) Description of the TNKS1 and TNKS2 ELISA Assay
(§4) Biochemical Activity Testing of TNKS 1 and 2: Activity ELISA (Autoparsylation Assay)
(§5) For analysis of autoparsylation activity of TNKS 1 and 2 an activity ELISA iss performed: In the first step GST tagged TNKS is captured on a Glutathione coated plate. Then the activity assay with biotinylated NAD is performed in the absence/presence of the compounds. During the enzymatic reaction GST tagged TNKS transfers biotinylated ADP-ribose to itself from biotinylated NAD as co-substrate. For the detection streptavidin-HRP conjugate is added that binds to the biotinylated TNKS and is thereby captured to the plates. The amount of biotinylated resp. autoparsylated TNKS is detected with a luminescence substrate for HRP. The level of the luminescence signal correlates directly with the amount of autoparsylated TNKS and therefore with activity of TNKS.
(§6) The activity ELISA is performed in 384 well Glutathione coated microtiter plates (Express capture Glutathione coated plate, Biocat, Heidelberg, Germany). The plates are pre-equilibrated with PBS. […] The plates are washed 3 times with PBS-Tween-20. The wells are blocked by incubation at room temperature for 20 minutes with 50 μl blocking buffer (PBS, 0.05% Tween-20, 0.5% BSA). Afterwards the plates are washed 3 times with PBS-Tween-20. […] The reaction is stopped by 3 times washing with PBS-Tween-20. For the detection 50 μl of 20 ng/μl Streptavidin, HRP conjugate (MoBiTec, Göttingen, Germany) in PBS/0.05% Tween-20/0.01% BSA are added and the plates are incubated for 30 minutes at room temperature. After three times washing with PBS-Tween-20 50 μl of SuperSignal ELISA Femto Maximum sensitivity substrate solution (ThermoFisherScientific (Pierce), Bonn, Germany) are added. Following a 1 minute incubation at room temperature luminescence signals are measured with an Envision multimode reader (Perkin Elmer LAS Germany GmbH) at 700 nm. The full value used is the inhibitor-free reaction. […] The inhibitory values (IC50) are determined using either the program Symyx Assay Explorer® or Condosseo® from GeneData.

TNKS2 = target: T2, TNKS2 (Homo sapiens, UniProt Q9H2K2); assay: TNKS2 activity ELISA (autoparsylation assay); type: biochemical
T2 construct: GST-tagged Tnks-2 (873-1166 aa, prepared in-house); made in house
T2 sequence (Q9H2K2 873-1166): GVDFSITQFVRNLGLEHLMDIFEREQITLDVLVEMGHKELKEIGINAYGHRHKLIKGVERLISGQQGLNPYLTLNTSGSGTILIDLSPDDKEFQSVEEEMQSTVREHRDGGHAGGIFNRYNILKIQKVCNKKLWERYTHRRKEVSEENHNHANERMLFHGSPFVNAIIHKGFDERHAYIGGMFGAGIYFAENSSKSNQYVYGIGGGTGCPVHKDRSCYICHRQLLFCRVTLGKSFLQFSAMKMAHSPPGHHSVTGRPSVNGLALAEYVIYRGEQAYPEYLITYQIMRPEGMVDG
Description: as §3, §4, §5, §6

Tankyrase [2] = tested on: T3, Tankyrase; assay: Measurement of cellular inhibition of Tankyrase (Axin2 level in DLD1 cells, Luminex based assay); type: cell-based; conditions: read-out: EC50 [M] TNKS cellular assay; DLD1 cells, Axin2 increase, 24 hours
T3 construct: TNKS cellular assay; other: DLD1 cells, Axin2 increase, 24 hours
Description: as §1, §2

PARP-1 = target: T4, PARP-1 (Homo sapiens, UniProt P09874); assay: PARP-1 autoparsylation assay (HTRF); type: biochemical; conditions: His-tagged Parp-1, autoparsylation
T4 construct: purchased Enzo Life Sciences GmbH, Lörrach, Germany
T4 sequence (P09874 whole entry): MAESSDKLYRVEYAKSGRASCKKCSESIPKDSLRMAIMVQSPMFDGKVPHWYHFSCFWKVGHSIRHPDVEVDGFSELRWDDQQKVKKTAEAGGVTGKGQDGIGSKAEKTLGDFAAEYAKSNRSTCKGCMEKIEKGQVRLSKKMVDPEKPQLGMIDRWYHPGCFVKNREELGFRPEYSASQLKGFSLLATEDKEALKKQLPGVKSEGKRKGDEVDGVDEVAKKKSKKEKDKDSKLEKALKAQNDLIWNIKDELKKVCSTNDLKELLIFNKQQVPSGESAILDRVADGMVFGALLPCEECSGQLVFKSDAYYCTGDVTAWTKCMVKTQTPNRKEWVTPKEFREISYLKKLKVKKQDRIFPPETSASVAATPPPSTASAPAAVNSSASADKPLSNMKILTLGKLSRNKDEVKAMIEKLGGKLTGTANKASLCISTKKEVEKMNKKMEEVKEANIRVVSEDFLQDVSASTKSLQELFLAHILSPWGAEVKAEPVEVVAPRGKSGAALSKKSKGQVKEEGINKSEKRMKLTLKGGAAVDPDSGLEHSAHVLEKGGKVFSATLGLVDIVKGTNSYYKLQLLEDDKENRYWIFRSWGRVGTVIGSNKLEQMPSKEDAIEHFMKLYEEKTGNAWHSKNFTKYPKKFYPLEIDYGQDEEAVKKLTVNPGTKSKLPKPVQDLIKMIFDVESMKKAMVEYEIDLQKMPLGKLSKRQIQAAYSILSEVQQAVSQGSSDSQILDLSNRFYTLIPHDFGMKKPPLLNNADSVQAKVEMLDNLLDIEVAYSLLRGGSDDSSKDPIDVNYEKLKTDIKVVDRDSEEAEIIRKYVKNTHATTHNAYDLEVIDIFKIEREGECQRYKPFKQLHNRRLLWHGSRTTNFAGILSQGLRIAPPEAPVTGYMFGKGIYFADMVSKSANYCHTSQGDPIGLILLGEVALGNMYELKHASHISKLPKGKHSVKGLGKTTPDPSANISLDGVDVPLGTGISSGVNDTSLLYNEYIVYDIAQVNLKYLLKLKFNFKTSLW

[3] = prior art compounds, read-out: IC50 (TNKS1)
[4] = GST-tagged Tnks-1, read-out: IC50 [M] TNKS1 ELISA
[5] = GST-tagged Tnks-2, read-out: IC50 [M] TNKS2 ELISA

SMILES | cellular assay: effect (Tankyrase [1]; at 30 μM, prior art compound) | IC50 (TNKS1; [3]) [M] | IC50 (TNKS2; prior art compounds, read-out: IC50 (TNKS2)) [M] | EC50 (Tankyrase [2]) [M] | IC50 (PARP-1) [nM] | IC50 (TNKS1; [4]) [M] | IC50 (TNKS2; [5]) [M] | EC50 (Tankyrase [1]) [nM] | IC50 (TNKS1) [M] | IC50 (TNKS2) [M]
O=c1[nH]c(-c2ccc3c(c2)OCO3)nc2ccccc12 [reference compound] | no effect | 5.9e-07 | 6e-07 |  |  |  |  |  |  | 
COc1ccc(C(=O)C2CCN(C(=O)CCCc3nc4ccc(F)cc4c(=O)[nH]3)CC2)cc1C [Compound A24, 6-Fluoro-2-{4-[4-(4-methoxy-3-methyl-benzoyl)-piperidin-1-yl]-4-oxo-butyl}-3H-quinazolin-4-one] |  |  |  | 1e-09 | 1000 | 1.6e-10 | 1.4e-10 |  |  | 
COc1ccccc1NC(=O)c1ccc(NC(=O)CCc2nc3ccccc3c(=O)[nH]2)cc1 [reference compound] |  | 7.4e-09 |  |  |  |  |  | 320 |  | 
COc1ccc(C(=O)C2CCN(C(=O)CCCc3nc4ccccc4c(=O)[nH]3)CC2)cc1 [Compound A1, 2-{4-[4-(4-methoxy-benzoyl)-piperidin-1-yl]-4-oxo-butyl}-3H-quinazolin-4-one] |  |  |  | 1.6e-09 | 1400 |  |  |  | 2.3e-10 | 1.1e-10
N#Cc1ccc(OC2CCN(C(=O)CCCc3nc4ccc(F)cc4c(=O)[nH]3)CC2)cc1 [Compound A22, 4-{1-[4-(6-Fluoro-4-oxo-3,4-dihydro-quinazolin-2-yl)-butyryl]-piperidin-4-yloxy}-benzonitrile] |  |  |  | 5.6e-07 | 640 | 1.3e-07 | 7.6e-08 |  |  | 
N#Cc1cc(C2CCN(C(=O)CCCc3nc4ccc(F)cc4c(=O)[nH]3)CC2)cnc1N [Compound A31, 6-Amino-1′-[4-(6-fluoro-4-oxo-3,4-dihydro-quinazolin-2-yl)-butyryl]-1′,2′,3′,4′,5′,6′-hexahydro-[3,4]bipyridinyl-5-carbonitrile] |  |  |  | 2.9e-09 | 1400 | 2.1e-09 | 9.5e-10 |  |  | 
COCCn1cc(-c2ccc(C(=O)C3CCN(C(=O)CCCc4nc5ccccc5c(=O)[nH]4)CC3)cc2)cn1 [Compound A11, 2-[4-(4-{4-[1-(2-methoxy-ethyl)-1H-pyrazol-4-yl]-benzoyl}-piperidin-1-yl)-4-oxo-butyl]-3H-quinazolin-4-one] |  |  |  | 7.3e-09 | 300 | 5.8e-11 | 1.2e-10 |  |  | 
Nc1ncc(C2CCN(C(=O)CCCc3nc4c(F)cccc4c(=O)[nH]3)CC2)cc1-c1ncccn1 [Compound A35, 2-[4-(6-Amino-5-pyrimidin-2-yl-3′,4′,5′,6′-tetrahydro-2′H-[3,4]bipyridinyl-1′-yl)-4-oxo-butyl]-8-fluoro-3H-quinazolin-4-one] |  |  |  | 1.8e-09 | 1400 | 4.9e-10 | 1.6e-10 |  |  | 
COc1ccc(C(=O)C2CCN(C(=O)CCCc3nc4ccccc4c(=O)[nH]3)CC2)cc1F [Compound A8, 2-{4-[4-(3-fluoro-4-methoxy-benzoyl)-piperidin-1-yl]-4-oxo-butyl}-3H-quinazolin-4-one] |  |  |  | 3.4e-09 | 680 | 8.5e-11 | 1.5e-10 |  |  | 
COc1ccc(C(=O)C2CCN(C(=O)CCCc3nc4ccccc4c(=O)[nH]3)CC2)cc1C [Compound A13, 2-[4-[4-(4-methoxy-3-methyl-benzoyl)-1-piperidyl]-4-oxo-butyl]-3H-quinazolin-4-one] |  |  |  | 8.6e-10 | 990 | 1e-10 | 1.3e-10 |  |  | 
COc1ccc(C(=O)C2CCN(C(=O)CCCc3nc4c(C)cc(F)cc4c(=O)[nH]3)CC2)cc1 [Compound A4, 6-fluoro-2-{4-[4-(4-methoxy-benzoyl)-piperidin-1-yl]-4-oxo-butyl}-8-methyl-3H-quinazolin-4-one] |  |  |  | 5.6e-10 | 170 | 6.6e-11 | 8.9e-11 |  |  | 
COc1ccc(C(=O)C2CCN(C(=O)CCCc3nc4ccccc4c(=O)[nH]3)CC2)cn1 [Compound A16, 2-{4-[4-(6-Methoxy-pyridine-3-carbonyl)-piperidin-1-yl]-4-oxo-butyl}-3H-quinazolin-4-one] |  |  |  | 1e-08 | 2700 | 1.1e-09 | 7.5e-10 |  |  | 
COc1ccc(C(=O)C2CCN(C(=O)CCCc3nc4ccc(F)cc4c(=O)[nH]3)CC2)cc1F [Compound A20, 6-Fluoro-2-{4-[4-(3-fluoro-4-methoxy-benzoyl)-piperidin-1-yl]-4-oxo-butyl}-3H-quinazolin-4-one] |  |  |  | 3.4e-09 | 960 | 2.5e-10 | 2.5e-10 |  |  | 
O=C(c1ccc(F)cc1)C1CCN(C(=O)CCCc2nc3c(F)cccc3c(=O)[nH]2)CC1 [Compound A28, 8-Fluoro-2-{4-[4-(4-fluoro-benzoyl)-piperidin-1-yl]-4-oxo-butyl}-3H-quinazolin-4-one] |  |  |  | 4.2e-08 | 3300 | 8.7e-10 | 6.2e-10 |  |  | 
COc1ccc(C(=O)C2CCN(C(=O)CCCc3nc4ccc(F)cc4c(=O)[nH]3)CC2)cn1 [Compound A21, 6-Fluoro-2-{4-[4-(6-methoxy-pyridine-3-carbonyl)-piperidin-1-yl]-4-oxo-butyl}-3H-quinazolin-4-one] |  |  |  | 7.8e-09 | 550 | 7.5e-10 | 6.8e-10 |  |  | 
Nc1ncc(C2CCN(C(=O)CCCc3nc4ccccc4c(=O)[nH]3)CC2)cc1-c1ncccn1 [Compound A30, 2-[4-(6-Amino-5-pyrimidin-2-yl-3′,4′,5′,6-tetrahydro-2′H-[3,4]bipyridinyl-1′-yl)-4-oxo-butyl]-3H-quinazolin-4-one] |  |  |  | 1.2e-09 | 670 |  |  |  | 4.1e-10 | 3e-10
COc1ccc(C(=O)C2CCN(C(=O)CCCc3nc4c(C)cc(F)cc4c(=O)[nH]3)CC2)cc1C [Compound A15, 6-fluoro-2-[4-[4-(4-methoxy-3-methyl-benzoyl)-1-piperidyl]-4-oxo-butyl]-8-methyl-3H-quinazolin-4-one] |  |  |  | 1.4e-09 | 64 | 8.8e-11 | 7.4e-11 |  |  | 
COc1ccc(C(=O)C2CCN(C(=O)CCCc3nc4ccc(F)cc4c(=O)[nH]3)CC2)cc1 [Compound A19, 6-Fluoro-2-{4-[4-(4-methoxy-benzoyl)-piperidin-1-yl]-4-oxo-butyl}-3H-quinazolin-4-one] |  |  |  | 8.3e-10 | 710 | 3.1e-10 | 3.2e-10 |  |  | 
N#Cc1cc(C2CCN(C(=O)CCCc3nc4ccccc4c(=O)[nH]3)CC2)cnc1N [Compound A36, 6-Amino-1′-[4-(4-oxo-3,4-dihydro-quinazolin-2-yl)-butyryl]-1′,2′,3′,4′,5′,6-hexahydro-[3,4]bipyridinyl-5-carbonitrile] |  |  |  | 2e-08 | 1100 |  |  |  | 1.9e-09 | 1.1e-09
Cn1cc(C(=O)C2CCN(C(=O)CCCc3nc4ccccc4c(=O)[nH]3)CC2)cn1 [Compound A41, 2-{4-[4-(1-Methyl-1H-pyrazole-4-carbonyl)-piperidin-1-yl]-4-oxo-butyl}-3H-quinazolin-4-one] |  |  |  | 9e-09 | 2100 | 5.8e-10 | 3.3e-10 |  |  | 
N#Cc1ccc(OC2CCN(C(=O)CCCc3nc4ccccc4c(=O)[nH]3)CC2)cc1 [Compound A17, 4-{1-[4-(4-Oxo-3,4-dihydro-quinazolin-2-yl)-butyryl]-piperidin-4-yloxy}-benzonitrile] |  |  |  | 7.2e-07 | 680 |  |  |  | 1.5e-07 | 7.9e-08
COc1ccc(C(=O)C2CCN(CC(=O)N(Cc3nc4c(c(=O)[nH]3)COCC4)CC3CC3)CC2)cc1 [reference compound] |  | 2e-09 |  |  |  |  |  | 35 |  | 
O=C(c1ccc(F)cc1)C1CCN(C(=O)CCCc2nc3ccccc3c(=O)[nH]2)CC1 [Compound A18, 2-{4-[4-(4-Fluoro-benzoyl)-piperidin-1-yl]-4-oxo-butyl}-3H-quinazolin-4-one] |  |  |  | 2.1e-08 | 2100 | 7e-10 | 6.1e-10 |  |  | 
